# Data as given in patent publication US20050118202A1, “Solid compositions containing compounds unstable to oxygen and method for stabilization thereof” (priority 2001, published 2005).
# Key:
# Format in all cases: physicochemical
# [1] = Experimental Example 1: residual ratio of bulk powders after storage; settings: bulk powder left at 40° C. and 75% RH in atmospheric air for 1 month
# Description: After the bulk powder of the compound A and sodium ascorbate were left at 40° C. and 75% RH in atmospheric air for 1 month, their residual ratios were measured. As a result, the residual ratio of the compound A was 89.7% (W/W) and the residual ratio of sodium ascorbate was 99.0% (W/W).
# The quantitative determination of the compound A was carried out by a HPLC method under the following conditions: • solvent: acetonitrile, • measurement wavelength: 287 nm, • column: CHIRALCEL OJ-R 4.6×150 mm (manufactured by Daicel Chemical Industries, Ltd. CPI Co.), • mobile phase: a mixed (16:9) solution of acetonitrile/10 mM ammonium acetate aqueous solution, • oven temperature: around 25° C.
# The quantitative determination of sodium ascorbate was carried out by iodine titration method (solvent: metaphosphoric acid solution (1→50), indicator: starch reagent solution).
# [2] = Experimental Example 2: stability of tablet vs bulk powder, 60° C. 2 weeks, HPLC
# Description: The tablet obtained in Example 1 was put in a capped glass bottle and sealed. After storage at 60° C. for 2 weeks, the contents of the compound A and the related substances in the tablet were measured. Similarly, the bulk powder used for production of the tablet in Example 1 was stored under the same conditions and then the contents of the compound A and the related substances were measured. A comparison of stabilities between the formulated tablet and the bulk powder was made.
# (§1) Measurement of the contents of the compound A and the related substances was carried out by a HPLC method under the following conditions: • solvent: water/acetonitrile mixed solution (4:6), • measurement wavelength: 287 nm, • column: XTerra MS C18 3.5 μm 4.6 mm×150 mm (manufactured by Waters Co., Ltd.), • mobile phase: a gradient of 10 mM ammonium acetate solution/acetonitrile mixed solution (4:3) and acetonitril/10 mM ammonium acetate solution mixed solution (9:1), and • oven temperature: around 40° C.
# [3] = Experimental Example 3: stability of tablets with/without sodium ascorbate, 40° C. 1 month, HPLC
# Description: as §1
# The equilibrium moisture content (ERH) of each tablet was measured by the following method. The results were 3.0% and 3.4%, respectively.
# These tablets were put in a capped glass bottle and sealed. After storage at 40° C. for 1 month, the contents of the compound A and the related substances were measured. The content of the compound A was measured in the same manner as the measurement method in Experimental Example 2, except that a water/acetonitrile mixed solution (4:6) was used as a solvent. The measurement of the related substances was carried out in the same manner as […].
# [4] = initial: immediately after production
# [5] = sealed capped glass bottle, after 2-week storage at 60° C.
# [6] = content in the bulk used for Examples 5 and 7
SMILES,residual ratio [1],"Related substance C [2, 4]","Related substance D [2, 4]","Related substance E [2, 4]","Related substance F [2, 4]","related substance A [2, 4]","residual ratio [2, 4]","Related substance C [2, 5]","Related substance D [2, 5]","Related substance E [2, 5]","Related substance F [2, 5]","related substance A [2, 5]","related substance B [2, 5]","residual ratio [2, 5]","Related substance C [3, 6]","Related substance D [3, 6]","Related substance E [3, 6]","related substance A [3, 6]","related substance B [3, 6]","related substance A ([3]; content in the bulk used, last item of the list A to F (second mention of A))"
"COc1cc2c(cc1OC)CN(c1c(C)c(C)c3c(c1C)[C@@H](c1ccc(C)cc1)C(C)(C)O3)C2 [compound A, (R)-(+)-5,6-dimethoxy-2-[2,2,4,6,7-pentamethyl-3-(4-methylphenyl)-2,3-dihydro-1-benzofuran-5-yl]isoindoline]",89.7 % (W/W),0.24%,0.32%,0.13%,3.01%,0.46%,100.0%,1.13%,2.12%,0.78%,10.41%,1.74%,0.59%,87.9%,0.40%,0.43%,0.08%,0.31%,0.08%,2.69%
O=C1O[C@H]([C@@H](O)CO)C([O-])=C1O.[Na+] [sodium ascorbate],99.0 % (W/W),,,,,,,,,,,,,,,,,,,
